The assay deals with T1, ApoER2 (Homo sapiens, UniProt Q14114).
T1 construct: expressed in transfected cells; host or cells: HEK293 (named only through the non-transfected controls)
T1 sequence (Q14114 33-963) 1: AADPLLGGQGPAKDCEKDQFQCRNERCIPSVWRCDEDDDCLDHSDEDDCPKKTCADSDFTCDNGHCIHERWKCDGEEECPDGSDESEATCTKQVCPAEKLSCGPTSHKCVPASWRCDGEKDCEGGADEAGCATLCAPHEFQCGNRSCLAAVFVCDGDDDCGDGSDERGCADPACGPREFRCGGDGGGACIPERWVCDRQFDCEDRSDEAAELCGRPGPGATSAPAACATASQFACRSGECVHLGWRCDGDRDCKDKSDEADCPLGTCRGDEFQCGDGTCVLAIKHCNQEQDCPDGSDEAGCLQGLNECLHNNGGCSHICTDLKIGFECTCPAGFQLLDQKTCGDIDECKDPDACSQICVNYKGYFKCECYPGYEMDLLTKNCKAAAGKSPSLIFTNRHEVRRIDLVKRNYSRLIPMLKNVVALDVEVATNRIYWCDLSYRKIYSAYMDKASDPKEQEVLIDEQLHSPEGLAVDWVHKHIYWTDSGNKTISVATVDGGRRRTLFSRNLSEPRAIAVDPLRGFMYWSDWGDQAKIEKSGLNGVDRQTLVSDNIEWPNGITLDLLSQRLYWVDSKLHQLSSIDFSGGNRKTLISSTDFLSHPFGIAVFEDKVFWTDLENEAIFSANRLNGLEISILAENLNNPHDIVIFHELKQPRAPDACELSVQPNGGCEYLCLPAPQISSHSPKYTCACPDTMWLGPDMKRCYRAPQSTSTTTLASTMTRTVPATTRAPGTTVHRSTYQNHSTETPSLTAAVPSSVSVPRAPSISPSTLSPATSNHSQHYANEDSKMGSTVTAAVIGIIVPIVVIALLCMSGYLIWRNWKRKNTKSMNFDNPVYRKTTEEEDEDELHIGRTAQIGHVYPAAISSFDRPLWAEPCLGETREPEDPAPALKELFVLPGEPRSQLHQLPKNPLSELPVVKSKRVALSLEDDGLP
T1 sequence (Q14114 33-963) 2: T1 sequence (Q14114 33-963) 1
Kind of assay: ApoER2 luciferase assay (ApoER2 dimerization/clustering). The assay is classed as cell-based. The following applies: for changes in firefly/renilla ratios in the ApoER2 luciferase assay: 10 μM concentration, 60 minutes. From the text:
FIG. 3 is a schematic of the ApoER2 Clustering Assay. The ApoER2 clustering assay uses the co-transfection of ApoER2 fusion proteins that express either the C- or N-terminal of the luciferase enzyme (A″) Upon Reelin fragment binding, receptor clustering results in active Luciferase and detectable fluorescence (B″). Controls included non-transfected Hek293 cells. Results are average +/−SEM; n=9-15 assays per fragment
Reelin is able to signal through ApoER2 and VLDLR by clustering the receptors. Receptor clustering results in Dab1 activation and is responsible for the modulation of LTP in wild-type acute hippocampal slices. The ApoER2 luciferase assay was used to measure ApoER2 dimerization. This system used an ApoER2-luciferase fusion protein in which ApoER2 was coupled with either the N- or C-terminus portion of luciferase. Upon receptor clustering, the N- and C-terminus portions of luciferase combined to produce a quantifiable fluorescent signal. As a control, all cells were transfected with a Renilla florescent protein that quantified the number of cells in the testing well. The ratio of luciferase florescence to Renilla florescence was used to determine the effect of small molecules. The ApoER2 luciferase assay (FIG. 3) was used to identify small molecules that mimic the actions of Reelin to activate the Reelin signaling system.
The CNS-Set Library was purchased from ChemBridge® and consisted of 35,000 small molecule compounds. The effects of each compound on Reelin signaling were tested in the absence or presence of purified Reeling with the ApoER2 luciferase assay in a 96-well plate. The assay was used to identify agonists of ApoER2 clustering and luciferase activity and was not particularly sensitive for identifying antagonists of receptor clustering.
Relact02 was tested for inducing dimerization of ApoER2 using luciferase as a reporter. Shown in FIG. 1A is a dose response curve assessing luciferase activity. Activity was determined by dimerization of two ApoER2 receptors fused with a luciferase enzyme reporter at the N- or C-terminal region. The control was a compound with structure similar to but different from Relact02. Shown in FIG. 1B is a time course for the luciferase assay using 5 μM of Relact02 or control molecule. Shown in FIG. 1C is a time course using 5 μM Relact02 alone (black bars) or in the presence of the Reelin protein (gray bars).

Molecules are shown by their SMILES.

Regarding `CC(C)c1ccc(/C=C/C(=O)Nc2ccc(Cl)cc2Cl)cc1` [(2)], the “changes in firefly/renilla ratios in the ApoER2 luciferase assay” value is “did not show changes”.
The same measure, in the same setting: for `CC(C)c1ccc(/C=C/C(=O)Nc2cccc(Cl)c2Cl)cc1` [(3)] the value was “did not show changes”.
Regarding `CC(C)c1ccc(/C=C/C(=O)Nc2ccc(Cl)cc2)cc1` [(4)], the “changes in firefly/renilla ratios in the ApoER2 luciferase assay” value is on record as “did not show changes”.
The same measure, in the same setting: for `CC(C)c1ccc(/C=C/C(=O)Nc2ccc(I)cc2Cl)cc1` [(5)] the value was “did not show changes”.
In the case of `CCOC(=O)c1cc(C(=O)NCc2ccccc2)c(=O)[nH]c1C` [Compound E02, ethyl 5-((benzylamino)carbonyl)-2-methyl-6-oxo-1,6-dihydro-3-pyridinecarboxylate, reference compound], the “activation / luciferase activity in the ApoER2 luciferase assay” value (compound screening, 96-well plate) is recorded as “no luciferase activity”.
